The values below come from US20230095912A1, “Composition and Methods for Selective Degradation of Engineered Proteins” (Celgene Corporation, priority 2021, published 2023).

The test system of experiment [1] is CAR tagged with ZNF2_3 containing a G6N mutation. Put plainly: Compound A titration on Jurkat cells with CAR tagged with ZNF2_3 G6N mutant degron. Particulars: any dose. In kind it is cell-based, human. The source says: The IKZF1 degrons were fused to the C-terminus. See SEQ ID NOs: 53-57. […] This configuration was therefore selected for further testing.
Experiment [2] deals with WT IKZF1 ZNF2_3-tagged CARs. Put plainly: Erk phosphorylation (pErk) western blot after CAR degradation in Jurkat cells. In kind it is cell-based, human. As to conditions: 1 mM pretreatment 12 hours, co-culture with CD19-expressing K562 30 minutes. The procedure:
Abrogation of signaling with CAR degradation was assessed by measuring activation of the downstream MAPK signaling pathway. Jurkat cells were transduced with untagged, WT degron-tagged, or G6N degron-tagged CAR as described above.
Background: A western blot detects proteins with antibodies after separation by electrophoresis.

A further experiment has as its system Aurora A. Particulars: 1 μM, 16 hours, knock-in Jurkat cells. An excerpt: (§1) The ability to knock degron tags in-frame into genomic loci to allow for compound-mediated modulation of endogenous protein levels was explored. Adeno-associated viral vectors were designed to deliver IKZF1 ZNF2_3-V5 tag-T2A-muThy1.1 tags to be knocked in-frame into the AURA (FIG. […]) or TOX locus (FIG. 20C-20D) in Jurkat cells in both the N- and C-terminal orientations. Jurkats were then electroporated with Cas9/guide RNA ribonucleoproteins. […] Cells were then pelleted, lysed, run on a denaturing protein gel, transferred to a membrane, probed with antibody and visualized with film.

The next experiment relates to tagged TOX. Particulars: 1 μM, 16 hours, knock-in Jurkat cells.
Excerpt: as §1

The next experiment has as its target T1, ePL-tagged GSPT1 (Homo sapiens, UniProt P15170+Q96SW2).
T1 construct: expressed in transfected cells
Put plainly: ePL-tagged substrate degradation in DF15 multiple myeloma cells. It is filed as cell-based. Particulars: read-out: EC50; GSPT1; DF15 cells, 20 hours. The procedure:
(§2) DF15 multiple myeloma cells stably expressing ePL-tagged Aiolos, Ikaros, or GSPT1, and MDS-L cells stably expressing ePL-tagged CK1a were generated via lentiviral infection with pLOC-ePL-Aiolos (or Ikaros, GSPT1, or CK1a). […] Compounds were dispensed by an acoustic dispenser (ATS acoustic transfer system from EDC Biosystems) into a 384-well plate in a 10-point dose response curve using 3-fold dilutions starting at 10 μM and going down to […]. Then, 25 μL of media (RPMI-1640+10% heat inactivated FBS+25 mM Hepes+1 mM Na pyruvate+1× NEAA+1×Pen Strep Glutamine) containing 5000 of DF15 or MSD-L cells was dispensed per well. Assay plates were incubated at 37° C. with 5% CO2 for 4 hours except 20 hours for GSPT1. After incubation, 25 μL of the InCELL Hunter detection reagent working solution (DiscoverX, catalogue no. 96-0002, Fremont, Calif.) was added to each well and incubated at room temperature for 60 min protected from light. After 60 min, luminescence was read on an Envision or PHERAstar luminescence reader.
(§3) To determine the EC50 value of a compound for the degradation of a given substrate (concentration of compound that achieves half the maximum degradation observed), a four-parameter logistic model (sigmoidal dose—response model) (FIT=(A+{(B−A)/1+[(C/x)D]})) where C is the inflection point (EC50), D is the […], and A and B are the low and high limits of the fit, respectively) was used. All substrate degradation curves were processed and evaluated using ActivityBase (IDBS), a data analysis software package. Ymin is minimum percent protein remaining.

For the next experiment, the target named is T2, ePL-tagged Ikaros (Homo sapiens, UniProt Q13422+Q96SW2).
T2 construct: expressed in transfected cells
T2 sequence (Q13422 whole entry): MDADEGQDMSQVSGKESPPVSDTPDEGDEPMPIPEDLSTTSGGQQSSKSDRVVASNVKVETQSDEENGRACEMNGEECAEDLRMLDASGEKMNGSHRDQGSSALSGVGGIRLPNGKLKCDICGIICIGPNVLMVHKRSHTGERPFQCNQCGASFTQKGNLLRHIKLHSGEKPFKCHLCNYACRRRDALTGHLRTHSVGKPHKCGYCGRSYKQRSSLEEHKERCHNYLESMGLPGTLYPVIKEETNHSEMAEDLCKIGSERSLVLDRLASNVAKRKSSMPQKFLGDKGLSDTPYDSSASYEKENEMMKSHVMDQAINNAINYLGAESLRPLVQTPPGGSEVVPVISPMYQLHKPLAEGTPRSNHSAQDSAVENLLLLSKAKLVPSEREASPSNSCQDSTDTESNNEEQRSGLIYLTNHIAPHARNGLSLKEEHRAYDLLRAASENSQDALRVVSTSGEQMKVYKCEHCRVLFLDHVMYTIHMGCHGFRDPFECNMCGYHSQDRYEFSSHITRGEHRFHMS
T2 sequence (Q96SW2 whole entry): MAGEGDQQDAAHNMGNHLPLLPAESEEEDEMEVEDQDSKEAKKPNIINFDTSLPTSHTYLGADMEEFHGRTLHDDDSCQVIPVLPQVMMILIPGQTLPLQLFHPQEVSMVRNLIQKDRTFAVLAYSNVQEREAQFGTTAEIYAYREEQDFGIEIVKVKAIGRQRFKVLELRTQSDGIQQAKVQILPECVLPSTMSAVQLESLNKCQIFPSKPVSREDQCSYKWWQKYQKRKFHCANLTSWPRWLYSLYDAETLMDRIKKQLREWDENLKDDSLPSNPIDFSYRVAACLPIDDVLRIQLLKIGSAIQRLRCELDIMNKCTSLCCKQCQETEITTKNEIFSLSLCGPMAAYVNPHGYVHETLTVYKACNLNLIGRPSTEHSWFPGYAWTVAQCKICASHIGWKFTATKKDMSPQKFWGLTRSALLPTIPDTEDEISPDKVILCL
T2 sequence (Q16531 whole entry partner): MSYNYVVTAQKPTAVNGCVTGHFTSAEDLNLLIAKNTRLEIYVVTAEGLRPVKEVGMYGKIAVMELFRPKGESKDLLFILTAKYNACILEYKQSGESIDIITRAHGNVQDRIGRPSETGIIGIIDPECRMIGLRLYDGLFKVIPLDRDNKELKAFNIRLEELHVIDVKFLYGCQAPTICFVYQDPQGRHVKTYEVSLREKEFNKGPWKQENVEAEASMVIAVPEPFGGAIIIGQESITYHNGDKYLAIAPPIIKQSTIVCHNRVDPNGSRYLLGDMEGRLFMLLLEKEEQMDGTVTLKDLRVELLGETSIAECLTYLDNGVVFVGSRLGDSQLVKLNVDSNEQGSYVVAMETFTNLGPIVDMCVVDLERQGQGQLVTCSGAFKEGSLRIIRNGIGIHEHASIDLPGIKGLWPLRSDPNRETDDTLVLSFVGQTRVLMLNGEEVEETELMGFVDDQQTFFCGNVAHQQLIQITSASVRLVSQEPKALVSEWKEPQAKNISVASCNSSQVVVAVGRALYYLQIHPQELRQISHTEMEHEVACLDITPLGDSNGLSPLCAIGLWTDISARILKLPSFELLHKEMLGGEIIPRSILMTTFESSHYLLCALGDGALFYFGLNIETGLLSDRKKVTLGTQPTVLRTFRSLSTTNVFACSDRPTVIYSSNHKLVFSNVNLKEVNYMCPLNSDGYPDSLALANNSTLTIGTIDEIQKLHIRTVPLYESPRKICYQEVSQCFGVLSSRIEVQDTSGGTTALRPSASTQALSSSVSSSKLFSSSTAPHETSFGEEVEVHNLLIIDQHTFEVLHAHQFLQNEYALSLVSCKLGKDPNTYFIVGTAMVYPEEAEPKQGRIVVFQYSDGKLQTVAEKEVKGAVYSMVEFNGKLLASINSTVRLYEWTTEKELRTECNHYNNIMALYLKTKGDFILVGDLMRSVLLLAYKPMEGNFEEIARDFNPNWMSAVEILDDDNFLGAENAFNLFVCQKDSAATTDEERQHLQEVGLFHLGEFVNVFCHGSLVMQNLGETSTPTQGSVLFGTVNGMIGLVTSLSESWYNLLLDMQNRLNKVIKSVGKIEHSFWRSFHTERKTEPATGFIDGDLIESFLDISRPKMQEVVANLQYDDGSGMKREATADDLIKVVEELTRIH
The description is as above. It is filed as cell-based. Particulars: read-out: EC50; Ikaros; DF15 cells, 4 hours. On the procedure: as §2, §3

For the next experiment, the target named is T3, ePL-tagged CK1a (Homo sapiens, UniProt P48729+Q96SW2).
T3 construct: expressed in transfected cells
T3 sequence (P48729 whole entry): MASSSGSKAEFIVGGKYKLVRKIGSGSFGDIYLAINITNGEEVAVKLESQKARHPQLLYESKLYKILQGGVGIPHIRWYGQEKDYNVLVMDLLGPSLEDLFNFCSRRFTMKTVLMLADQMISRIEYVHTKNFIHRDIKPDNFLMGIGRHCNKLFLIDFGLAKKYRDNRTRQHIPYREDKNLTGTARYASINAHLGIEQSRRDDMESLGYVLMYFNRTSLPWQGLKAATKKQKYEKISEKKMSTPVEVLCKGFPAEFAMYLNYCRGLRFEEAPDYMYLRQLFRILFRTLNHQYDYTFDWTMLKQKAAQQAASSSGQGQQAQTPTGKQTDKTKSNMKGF
T3 sequence (Q96SW2 whole entry): as the sequence (Q96SW2 whole entry) above
T3 sequence (Q16531 whole entry partner): as the sequence (Q16531 whole entry partner) above
As to the kind of experiment: ePL-tagged substrate degradation in MDS-L cells. In kind it is cell-based. On the procedure: as §2, §3

For experiment [3], the target named is IKZF1 ZNF2-tagged CD19 CAR (Homo sapiens, UniProt Q13422+Q96SW2). Particulars: jurkat, 1440 min.
Sequence of IKZF1 ZNF2-tagged CD19 CAR (Q13422 other isoform, or with tags, fused parts or gaps): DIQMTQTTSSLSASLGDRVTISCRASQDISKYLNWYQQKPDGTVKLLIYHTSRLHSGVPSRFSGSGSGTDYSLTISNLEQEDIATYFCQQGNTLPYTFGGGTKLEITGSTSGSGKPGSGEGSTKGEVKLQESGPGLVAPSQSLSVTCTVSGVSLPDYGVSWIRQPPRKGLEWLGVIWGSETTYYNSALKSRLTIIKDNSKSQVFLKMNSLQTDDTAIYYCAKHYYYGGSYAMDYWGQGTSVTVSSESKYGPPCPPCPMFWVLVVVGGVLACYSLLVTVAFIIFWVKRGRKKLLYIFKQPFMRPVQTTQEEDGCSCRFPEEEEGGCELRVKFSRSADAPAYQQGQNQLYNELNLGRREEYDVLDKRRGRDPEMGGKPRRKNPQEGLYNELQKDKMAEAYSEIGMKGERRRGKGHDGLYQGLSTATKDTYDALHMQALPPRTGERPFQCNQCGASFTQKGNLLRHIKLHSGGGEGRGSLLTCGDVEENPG
Sequence of IKZF1 ZNF2-tagged CD19 CAR (Q16531 whole entry, further chain): as the sequence (Q16531 whole entry partner) above
Sequence of IKZF1 ZNF2-tagged CD19 CAR (Q96SW2 whole entry): as the sequence (Q96SW2 whole entry) above
For experiment [4], the target named is CAR tagged with WT ZNF2_3 (Homo sapiens, UniProt Q13422+Q96SW2). Particulars: higher Compound A concentrations.
Sequence of CAR tagged with WT ZNF2_3 (Q13422 other isoform, or with tags, fused parts or gaps): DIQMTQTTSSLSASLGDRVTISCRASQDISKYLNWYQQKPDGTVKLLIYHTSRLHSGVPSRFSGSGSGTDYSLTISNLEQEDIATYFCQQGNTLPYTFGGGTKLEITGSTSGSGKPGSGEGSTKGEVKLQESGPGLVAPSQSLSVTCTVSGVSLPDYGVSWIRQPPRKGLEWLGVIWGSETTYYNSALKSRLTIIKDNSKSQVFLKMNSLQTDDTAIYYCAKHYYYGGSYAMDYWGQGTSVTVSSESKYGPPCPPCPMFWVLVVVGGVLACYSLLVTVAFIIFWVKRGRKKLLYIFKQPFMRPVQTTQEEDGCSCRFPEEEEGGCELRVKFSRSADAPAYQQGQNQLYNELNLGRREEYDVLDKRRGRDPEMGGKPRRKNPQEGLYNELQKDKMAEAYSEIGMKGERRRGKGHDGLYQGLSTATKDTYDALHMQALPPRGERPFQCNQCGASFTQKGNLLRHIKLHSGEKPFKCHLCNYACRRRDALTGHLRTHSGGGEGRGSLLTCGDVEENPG
Sequence of CAR tagged with WT ZNF2_3 (Q96SW2 whole entry): as the sequence (Q96SW2 whole entry) above
Sequence of CAR tagged with WT ZNF2_3 (Q16531 whole entry, further chain): as the sequence (Q16531 whole entry partner) above
Experimental: The IKZF1-ZNF2 degron was further modified to promote improved CAR degradation. Untagged CAR and CAR tagged with the original IKZF1-ZNF2 degrons were tested alongside alternate orientations and combinations of IKZF1 ZNF1, ZNF2, and ZNF3 (FIG. 5A). Each CAR included a CD28 transmembrane domain, a 4-1BB costimulatory domain, and a CD3 (CD3z) signaling domain. The IKZF1 degrons were fused to the C-terminus. […] A lentiviral vector encoding untagged CD19 CAR or CAR tagged with various configurations of IKZF1-ZNFs was transduced into the Jurkat cell line. Transduced cells were first co-cultured with a CD19-expressing K562 target cell line at 37° C. for 7.5 hours, and normalized levels of tdTomato reporter were assessed by flow cytometry.
Experiment [5] concerns the target IKZF1 ZNF2_3 tagged CD19 CAR (Homo sapiens, UniProt Q13422+Q96SW2). As to conditions: 100 nM pre-treatment 48 hours, co-culture with CD19-expressing K562 8 hours.
Experimental: Function of IKZF1 ZNF2 tagged CD19 CAR T cells (FIG. 2, ZNF2 amino acid sequence of SEQ ID NO: 15) was evaluated in a reporter assay, in which Jurkat cells have been engineered to express tdTomato when the Nur77 gene, associated with CAR and TCR activation, is actively transcribed (FIG. 3). Lentiviral vectors encoding ZNF-tagged CD19 CAR, untagged CD19 CAR, or an untagged BCMA CAR negative control were transduced into the Jurkat reporter cell line. Transduced cells were then co-cultured with a CD19-expressing K562 target cell line at 37° C. Levels of tdTomato, both in the form of mean fluorescence intensity (MFI) and the overall percent of positive cells, were assessed by flow cytometry every 2 hours for 12 hours.
A lentiviral vector encoding ZNF2_3 tagged or untagged CD19 CAR (see Example 2) was transduced into the reporter cell line. […] Levels of tdTomato in the form of mean fluorescence intensity (MFI) (FIG. 6B) and the overall percent of positive cells, as well as normalized CAR levels (FIG. 6C), were assessed by flow cytometry (FIG. 6A).

Sequence of IKZF1 ZNF2_3 tagged CD19 CAR (Q96SW2 whole entry): as the sequence (Q96SW2 whole entry) above
Sequence of IKZF1 ZNF2_3 tagged CD19 CAR (Q16531 whole entry, further chain): as the sequence (Q16531 whole entry partner) above
T1 sequence (P15170 whole entry): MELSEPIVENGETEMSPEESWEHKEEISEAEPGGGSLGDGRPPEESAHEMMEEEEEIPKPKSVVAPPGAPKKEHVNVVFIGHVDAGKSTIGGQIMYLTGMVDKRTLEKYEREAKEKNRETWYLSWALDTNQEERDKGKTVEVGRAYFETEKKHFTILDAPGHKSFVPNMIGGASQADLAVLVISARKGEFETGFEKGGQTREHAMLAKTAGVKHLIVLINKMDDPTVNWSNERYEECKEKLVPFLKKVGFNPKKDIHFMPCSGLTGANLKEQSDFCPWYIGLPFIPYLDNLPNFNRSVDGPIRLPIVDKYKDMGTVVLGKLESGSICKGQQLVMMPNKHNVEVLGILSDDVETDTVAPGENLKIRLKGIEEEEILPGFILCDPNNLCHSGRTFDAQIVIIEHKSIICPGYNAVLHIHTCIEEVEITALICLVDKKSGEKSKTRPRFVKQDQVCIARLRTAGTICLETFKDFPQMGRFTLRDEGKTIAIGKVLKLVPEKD
T1 sequence (Q96SW2 whole entry): as the sequence (Q96SW2 whole entry) above
T1 sequence (Q16531 whole entry partner): as the sequence (Q16531 whole entry partner) above

In the case of `O=C1CCC(N2Cc3c(OCc4ccc(CN5CCN(c6ccc(F)cc6F)CC5)cc4)cccc3C2=O)C(=O)N1` (centres unmarked) [Compound A], the “response of G6N mutant tagged CAR” value in experiment [1] is listed as “failed to respond”. In addition, the “Erk phosphorylation (pErk)” value in [2] is given as “attenuated”. In the experiment on Aurora A, the “Aurora A levels (western blot)” value is “decreased”. Besides, the “tagged TOX levels (western blot)” value in the experiment with tagged TOX is reported as “decreased”. For the same molecule, the DC50 came to 39 nM on ePL-tagged GSPT1; 22 nM at ePL-tagged Ikaros; 190 nM on ePL-tagged CK1a (read-out: EC50, CK1a, MDS-L cells, 4 hours). On ePL-tagged CK1a, the “degradation of CK1a (in words)” value is “degraded CK1a to a significant extent”. For the same molecule, in [3], the CAR degradation is reported as ~55%. Moreover, the “CAR degradation (WT ZNF2_3 degron)” value in experiment [4] is listed as “deep CAR degradation”. In addition, the “inhibition of CAR activity” value in experiment [5] is “strongly inhibit CAR activity”.
